Measurements reported in the NIST ThermoML archive (doi:10.1016/j.jct.2010.08.019).
Where “and” joins values, the source holds several entries; their conditions need not be identical. Identical values can stand only once.

What was measured:
[1] = for surface tension liquid-gas: Wilhelmy-plate method; for viscosity / mass density: Liquid; for viscosity: Falling or rolling sphere viscometry; for mass density: Vibrating tube method
[2] = refractive index (Na D-line) (dimensionless); details: Liquid, Standard Abbe refractometry
[3] = refractive index (Na D-line) (dimensionless); xn = mol fraction of the nth substance listed; details: 101 kPa, Liquid, Standard Abbe refractometry
[4] = xn = mol fraction of the nth substance listed; details: for surface tension liquid-gas: Wilhelmy-plate method; for viscosity / mass density: 101 kPa, Liquid; for viscosity: Falling or rolling sphere viscometry; for mass density: Vibrating tube method

CC(C)CC(C)(C)C [2,2,4-trimethylpentane]
[1]
Details | surface tension liquid-gas [mN/m]
293.15 K | 18.8
298.15 K | 18.3
303.15 K | 17.9
313.15 K | 16.9
323.15 K | 16.2

Details | mass density, [1] [kg/m3] | refractive index, [2] | viscosity, [1] [mPa·s]
293.15 K, 101 kPa | 691.98 | 1.39161 | 0.503
298.15 K, 101.33 kPa | 687.7 | 1.38906 | 0.475
303.15 K, 101 kPa | 683.61 | 1.3866 | 0.447
313.15 K, 101 kPa | 675.23 | 1.38143 | 0.404
323.15 K, 101 kPa | 666.8 | 1.37627 | 0.365

CC(C)CC(C)(C)C [2,2,4-trimethylpentane] + C1CCOCC1
x2 = 0
Details | mass density, [4] [kg/m3] | refractive index, [3] | surface tension liquid-gas, [4] [mN/m] | viscosity, [4] [mPa·s]
293.15 K | 691.98 | 1.39161 | 18.8 | 0.503
303.15 K | 683.61 | 1.3866 | 17.9 | 0.447
313.15 K | 675.23 | 1.38143 | 16.9 | 0.404
323.15 K | 666.8 | 1.37627 | 16.2 | 0.365

CC(C)O [propan-2-ol]
[1]
Details | surface tension liquid-gas [mN/m]
293.15 K | 21.3
298.15 K | 20.9
303.15 K | 20.4
313.15 K | 19.6
323.15 K | 18.8

Details | mass density, [1] [kg/m3] | refractive index, [2] | viscosity, [1] [mPa·s]
293.15 K, 101 kPa | 785.44 | 1.37724 | 2.362
298.15 K, 101.33 kPa | 781.05 | 1.3752 | 2.04
303.15 K, 101 kPa | 776.75 | 1.37286 | 1.769
313.15 K, 101 kPa | 767.93 | 1.36852 | 1.331
323.15 K, 101 kPa | 758.9 | 1.36363 | 1.019

CC(C)O [propan-2-ol] + C1CCOCC1
x1 = 1
Details | mass density, [4] [kg/m3] | refractive index, [3] | surface tension liquid-gas, [4] [mN/m] | viscosity, [4] [mPa·s]
293.15 K | 785.44 | 1.37724 | 21.3 | 2.362
303.15 K | 776.75 | 1.37286 | 20.4 | 1.769
313.15 K | 767.93 | 1.36852 | 19.6 | 1.331
323.15 K | 758.9 | 1.36363 | 18.8 | 1.019

CC(C)O [propan-2-ol] + CC(C)CC(C)(C)C
x1 = 1
Details | mass density, [4] [kg/m3] | refractive index, [3] | surface tension liquid-gas, [4] [mN/m] | viscosity, [4] [mPa·s]
293.15 K | 785.44 | 1.37724 | 21.3 | 2.362
303.15 K | 776.75 | 1.37286 | 20.4 | 1.769
313.15 K | 767.93 | 1.36852 | 19.6 | 1.331
323.15 K | 758.9 | 1.36363 | 18.8 | 1.019

C1CCOCC1 [tetrahydropyran]
[1]
Details | surface tension liquid-gas [mN/m]
293.15 K | 27.5
298.15 K | 27.2
303.15 K | 26.2
313.15 K | 25.1
323.15 K | 23.8

Details | mass density, [1] | refractive index, [2] | viscosity, [1] [mPa·s]
293.15 K, 101 kPa | 884.27 kg/m3 | 1.39161 and 1.42109 | 0.86
298.15 K, 101.33 kPa | 878.8 kg/m3 | 1.4186 | 0.8
303.15 K, 101 kPa | 874.07 kg/m3 | 1.3866 and 1.41599 | 0.749
313.15 K, 101 kPa | 863.76 kg/m3 | 1.38143 and 1.41092 | 0.658
323.15 K, 101 kPa | 666.8 kg/m3 and 853.46 kg/m3 | 1.37627 and 1.40554 | 0.565
